Measured values: patent US12168003B2, “Selective inhibition of T follicular helper cells for treatment of autoimmune disorders” (priority 2019, dated 2024)

How the values were obtained:
[1] = tested on: CD4+ T cells from mice immunized with OVA/Alum; assay: In vitro treatment of mouse splenocytes with 4EGI-1 and SUnSET assay; assay type: cell-based
Experimental: Mice were immunized with 100 μg OVA/Alum and 7 days following, spleens were harvested and single-cell suspensions were generated. Splenocytes were incubated in mouse T cell media (detailed in Silencing of eIF4E in OT2 T cells by lentivirus transduction) with 0-25 μM 4EGI-1 for 4 hours at 37° C. Cells were stained with a live/dead viability marker and then for extracellular expression of CD4, CXCR5, PD-1, or ICOS or intranuclear expression of BCL6. For the SuNSET assay, cells from above were incubated 37° C. with 10 μg/mL puromycin for 10 minutes. Control samples were incubated with puromycin and 100 μg/mL cycloheximide. Cells were incubated with a live/dead viability marker and extracellular stain prior to fixation and permeabilization (BD Biosciences Fixation/Permeabilization Solution) and intracellular staining with anti-puromycin followed by anti-mouse IgG2a antibody conjugated to Alexa Fluor 488.

TFH cells = assay: OVA/Alum immunization with 4EGI-1 throughout the response; assay type: in vivo, mouse
Experimental: Single cell suspensions were stained with a viability marker diluted 1:1000 in PBS for 10 minutes, washed in PBS, and stained with antibodies to specific cell surface markers. Viability dye, antibody clones, and dilutions used to identify these populations are detailed in Table 2. Identification of cellular subsets in mice is detailed in FIGS. 1A-1N, 3A-3C, and 6A-6C). In brief, the following gating strategy was used to identify mouse TFH cells (CD4^+ PD1^+ CXCR5^+), TFR cells (CD4^+ PD1^+ CXCR5^+ Foxp3^+), IL-21^+ CD4^+ T cells (CD4^+ VFP^3+), IL-4^+ CD4^+ T cells (CD4^+ GFP^+) OT2 T cells (CD4^+ CD45.2^+ Vβ5^+), OT2 TFH cells (CD4^+ CD45.2^+ Vβ5^+ PD1^+ CXCR5^+), 2D2 T cells (CD4^+ CD45.2^+ Vα3.2^+), TFH-like 2D2 T cells (CD4^+ CD45.2^+ […]), plasma cells (B220^− CD138^+), plasmablasts (B220^mid CD138^+), GC B cells (B220^+ GL7^+ Fas^+), Light zone GC B cells (B220^+ GL7^+ Fas^+ CD86^+), dark zone GC B cells (B220^+ GL7^+ Fas^+ CXCR4^+), IgG1 switched GC B cells (B220^+ GL7^+ Fas^+ IgG1^+), OVA-specific GC B cells (B220^+ GL7^+ Fas^+ OVA-647^+), skin neutrophils (Ly6G^+ CD11b^+), lung eosinophils (SiglecF^+CD11c^−), brain and SC CD4^+ T cells (CD45^+ CD4^+). CD4^+ T cell expression of surface ICOS, PD-1, CXCR5, CD28, SLAM, OX-40 and intranuclear BCL6 was also determined. All flow cytometry procedures were performed on a ZE5 Cell Analyzed (Bio-Rad) and analyzed using FlowJo software (TreeStar).
OVA protein (Sigma A5503) was diluted in PBS and then in 20 mg/mL Imject Alum (ThermoFisher 77161) and mixed at room temperature for 30 minutes prior to i.p. injection of 100 μg OVA in 200 μL. When stated, mice were treated i.p. daily from day 0 to 6 or day 0 to 13 (just for TFR analysis) following OVA/Alum immunization with 25 mg/kg 4EGI-1 (MedChemExpress) or from day 7 to 13 following OVA/Alum immunization with 50 mg/kg or 75 mg/kg 4EGI-1. Vehicle control mice were administered 6 μL DMSO in 194 μL PBS i.p.
Spleens from OVA/Alum immunized mice treated with vehicle or 4EGI-1 were harvested, embedded in OCT, and frozen immediately on dry ice. Five-micron thick cryosections were cut and fixed in acetone for 10 min. Slides were blocked with 1% BSA and stained with anti-CD4 conjugated to Alexa Fluor 647 and anti-B220 Alexa Fluor 555. Antibody clones are detailed in Table 2. Following 3 washes with PBS, slides were mounted with DAPI fluoromount (VECTASHIELD) and sealed with clear nail polish. Staining was visualized and tiled using a Zeiss 700 laser scanning inverted confocal microscope.
B cell (Alexa fluor 555) and CD4^+ T cell (Alexa fluor 647) channels were split using FIJI, and B cell zones were manually outlined. This outline was overlaid upon the CD4^+ T cell stain and intensity of CD4^+ T cell staining within these zones was measured using FIJI and normalized to a fixed area of 500 microns
PVDF-coated 96-well plates (Millipore) were activated with methanol for 2 minutes, washed with PBS, and coated with 4 μg/mL OVA overnight at 4° C. Plates were blocked with 1% BSA for 2 hours at 37° C. prior to incubation with 1×10^7 splenocytes in RPMI containing 2% Ultra-low IgG FCS, 55 μM 2ME, and 100 U/mL penicillin and 100 μg/mL streptomycin in the top well. Cells were diluted by 1/2 each row going down the plate and incubated immobile overnight at 37° C. Plates were washed with water+0.05% Tween 20 for 5 min prior to 3 washes in PBS+0.05% Tween-20 for 10 minutes. Plates were incubated with 1:1000 HRP-coupled goat anti-mouse IgG1 antibody (Southern Biotech) in PBS+0.05% Tween 20 for 2 h prior to 3 washes in PBS+0.05% Tween 20 and incubation in tetramethylbenzidine (TMB) ELISA substrate buffer (ThermoFisher). Plates were washed once in distilled deionized water and spots were manually enumerated and antibody-secreting cells (ASC) per million splenocytes was determined.
For quantification of OVA-specific IgG1, high-binding 96-well plates (Costar) were coated with 10 μg/mL OVA protein. […]

[2] = 4EGI-1 up to 25 μM, 4 hours, mouse CD4+ T cells
[3] = 10-25 μM 4EGI-1, 4 hours, mouse CD4+ lymphocytes in culture
[4] = cytokine reporter mice, OVA-Alum immunization

O=C(O)C(Cc1ccccc1[N+](=O)[O-])=NNc1nc(-c2ccc(Cl)c(Cl)c2)cs1 (mixture of isomers) [4EGI-1]
levels of CXCR5 protein [1, 2]: unchanged
levels of ICOS protein [1, 2]: unchanged
levels of PD-1 protein [1, 2]: unchanged
reduction of BCL6 protein levels [1, 2]: ~3 fold
cell viability [1, 3]: without reducing
reduction of protein synthesis (SUnSET) [1, 3]: 3-4 fold
reduction of TFH cells in spleen (TFH cells; 25 mg/kg daily, OVA/Alum, day 7): 3.5 fold
overall CD4+ T cell numbers (TFH cells; 25 mg/kg daily, OVA/Alum, spleen, day 7): did not alter
CD4+ T cell activation (CD44high) (TFH cells; 25 mg/kg daily, OVA/alum): did not affect
CD4+ T cell division (TFH cells; 25 mg/kg daily, OVA/alum): did not affect
CD4+ T cell expression of CD28 (TFH cells; 25 mg/kg daily, OVA/alum): decreased by half
CD4+ T cell expression of OX40 (TFH cells; 25 mg/kg daily, OVA/alum): not affected
CD4+ T cell expression of SLAM (TFH cells; 25 mg/kg daily, OVA/alum): decreased by half
levels of expression of ICOS on CD4+ T cells (TFH cells; 25 mg/kg daily, OVA/alum): did not affect
reduction of expression of PD-1 on splenic CD4+ T cells (TFH cells; 25 mg/kg daily, OVA/alum): more than half
reduction of expression of intranuclear BCL6 in splenic CD4+ T cells (TFH cells; 25 mg/kg daily, OVA/alum): more than half
reduction of expression of surface CXCR5 on splenic CD4+ T cells (TFH cells; 25 mg/kg daily, OVA/alum): more than half
infiltration of CD4+ T cells in B cell zones (TFH cells; 25 mg/kg daily, OVA/alum, splenic sections): almost abolished
reduction of TFR cells (TFH cells; 4EGI-1 for 14 days, measured at day 14, OVA/Alum): 3 fold
serum OVA-specific IgG1 antibody (TFH cells; OVA/Alum, ELISA): reduced by half
OVA-specific IgG1 antibody secreting cells (ASCs) (TFH cells; OVA/Alum, ELISPOT, splenocytes): almost abolished
decrease of GC B cells in the CD86+ light zone (LZ) (TFH cells; OVA/Alum, spleen, day 7): 3 fold
decrease of GC B cells in the CXCR4+ dark zone (DZ) (TFH cells; OVA/Alum, spleen, day 7): 3 fold
decrease of GC B cells that are class switched IgG1+ (TFH cells; OVA/Alum, spleen, day 7): 3 fold
decrease of OVA-specific GC B cells (TFH cells; OVA/Alum, spleen, day 7): 3 fold
decrease of number of total GC B cells (TFH cells; OVA/Alum, spleen, day 7): 3 fold
reduction of number of total plasma cells (TFH cells; OVA/Alum, spleen, day 7): 2 fold
reduction of number of total plasmablasts (TFH cells; OVA/Alum, spleen, day 7): 2 fold
decrease of total number of CD4+ T cells producing IL-4 (GFP+) in the spleen (TFH cells; [4]): 2.5 fold
decrease of total number of CD4+ T cells producing IL-21 (VFP+) in the spleen (TFH cells; [4]): 2.5 fold
